# Legend:
# Type in all cases: cell-based, mouse
# IFN-β mRNA = experiment: Expression of IFN-β mRNA in peritoneal macrophages (Northern blot); details: stimulated 4 hr and 8 hr
# Procedure: (§1) IL-6, TNF-α and IL-12 in the culture supernatant were measured using mycoplasmal lipopeptide MALP-2 being TLR2 ligand (synthesized and purified as described in Takeuchi-MALP) and Staphylococcus aureus peptidoglycan (PGN) (Fluka) at various concentrations (FIG. 9). […] Next, peritoneal macrophages of wild-type and TIRAP^−/− mice were stimulated with Poly I:C being TLR3 ligand (Amersham) for 4 hr and 8 hr. Total RNA was extracted, and the expression of IFN-β mRNA was analyzed by Northern blot method. At that time, 18S ribosomal RNA was used as control. Expression of IFN-β mRNA was induced in both wild-type and TIRAP^−/− mice (FIG. 10).
# IRAK-1 = IRAK-1 in vitro kinase assay on lysates of stimulated peritoneal macrophages
# Procedure: IRAK-1 is activated in the downstream of MyD88. […] In vitro kinase assay was conducted as described previously (Sato et al. II), and kinase activation of IRAK-1 was measured. The same lysates were blotted with anti-IRAK-1 antibody, and the effect of IRAK-1 was analyzed (FIG. 13).
# NF-κB = NF-κB DNA binding in nuclear extracts of peritoneal macrophages (EMSA); details: LPS 100 ng/ml, MALP-2 3 ng/ml, R-848 10 nM
# [1] = tested on: peritoneal macrophages from wild-type and TIRAP−/− mice; experiment: Inflammatory cytokine production of peritoneal macrophages (ELISA of culture supernatant); details: LPS 1 ng/ml 24 hr, MALP-2 and PGN at various concentrations
# Procedure: Next, LPS-induced inflammatory cytokine production of peritoneal macrophages from wild-type and TIRAP^−/− mice was analyzed. 2 ml of 4% thioglycollate medium (DIFCO) were intraperitoneally injected into TIRAP^−/− and wild-type mice, respectively. Three days later, peritoneal exudate cells were isolated from peritoneal cavity of each mouse. The cells were cultured for 2 hr at 37° C. in RPMI 1640 medium (GIBCO) supplemented with 10% fetal bovine serum (GIBCO), nonadherent cells were removed by washing with Hank's buffered salt solution: HBSS; GIBCO) at ice temperature, and adherent cells were used as peritoneal macrophages. Each obtained peritoneal macrophage was cultured with 1 ng/ml of Re-595 LPS for 24 hr, and concentration of IL-6, TNF-α and IL-12 in the culture supernatant was measured according to a common procedure by ELISA (FIG. 7; means±SD of triplicates, N.D. Not detected).
# as §1, with “At that time, 18S ribosomal RNA was used as control. Expression of IFN-β mRNA was induced in both wild-type and TIRAP^−/− mice (FIG. 10).” left out
# ERK1/2, JNK and p38 = experiment: Activation of MAP kinases in peritoneal macrophages (Western blot); details: LPS 100 ng/ml, MALP-2 3 ng/ml, R848 100 nM, 10 min and 20 min
# Procedure: Next, peritoneal macrophages from wild-type and TIRAP^−/− mice were stimulated with 100 ng/ml of LPS, 3 ng/ml of MALP-2, and 100 nM of R848 for 10 min and 20 min, respectively. The cells were then lysed in the lysis buffer containing 1.0% Nonidet P-40, 150 mM NaCl, 20 mM tris-C1 (pH 7.5), 5 mM EDTA and protease inhibitor cocktail (Roche). The cell lysates were dissolved by SDS-PAGE and transferred onto a PVDF membrane (BioRad). The above-mentioned PVDF membrane was blotted with […] specific to ERK1/2, JNK, and p38 (Santa Cruz), and […] specific to phosphorylated ERK 1/2, phosphorylated JNK, and phosphorylated p38 (Cell Signaling) and Western blot analysis was conducted by visualizing with an enhanced chemiluminescence system (NEN Life Science Product) (FIG. 12). […] The result is quite similar to those observed in MyD88^−/− mice (Kawai et al.: Immunity 11: 115-22; 1999).
# [2] = tested on: splenocytes from wild-type and TIRAP−/− mice; experiment: Proliferation of splenocytes in the presence of IL-1, PHA or both ([3H]-thymidine uptake); details: 100 U/ml IL-1β, 10 ng/ml PHA, 72 hr + 12 hr
# From the text: As shown in MyD88-, TRAF6-, and IRAK-4-deficient mice, signaling pathway via IL-1 receptor family utilizes the same signaling pathway as that of TLRs (Adachi et. al., Immunity. 9, 143-150, 1998; Lomaga et al., Gene Dev. 13, 1015-24, 1999; Naito et al., Gene Cells 4, 353-62, 1999; Suzuki et al., Nature 416, 750-56, 2002). To investigate the proliferation of splenocytes from TIRAP^−/− mice induced by IL-1 or Phytohemagglutinin (PHA) being co-stimulatory substance with IL-1, splenocytes from wild-type and TIRAP^−/− mice were cultured for 72 hr and proliferated in the presence of 100 U/ml of IL-1β, and of 10 ng/ml of PHA, and in the co-presence of IL-1β and PHA, then supplemented with 1 μCi of [^3H]-thymidine, further cultured for 12 hr, and measured the uptake of [^3H] with a β scintillation counter. Proliferation of splenocytes was determined by measuring the [^3H] level of [^3H] thymidine ingested into a cell.
# [3] = TIRAP−/− peritoneal macrophages
# [4] = wild-type peritoneal macrophages
Molecule,autophosphorylation (Auto) of IRAK-1 (IRAK-1; TIRAP−/− macrophages),autophosphorylation (Auto) of IRAK-1 (IRAK-1; wild-type macrophages),"phosphorylation/activation of ERK1/2, JNK and p38 (ERK1/2, JNK and p38; wild-type macrophages)",proliferation of splenocytes (uptake of [3H]-thymidine) ([2]; TIRAP−/− splenocytes),proliferation of splenocytes (uptake of [3H]-thymidine) ([2]; wild-type splenocytes),also measured
Poly I:C,–,–,–,–,–,expression of IFN-β mRNA (IFN-β mRNA; [3]): induced; expression of IFN-β mRNA (IFN-β mRNA; [4]): induced
MALP-2,not observed,induced autophosphorylation,phosphorylated and activation was induced,–,–,"NF-κB DNA binding effect (NF-κB; TIRAP−/− macrophages, LPS at 10 min): significantly inhibited; NF-κB DNA binding effect (NF-κB; wild-type macrophages, LPS and MALP-2 at 10 min): observed; production of IL-6, TNF-α and IL-12 [1, 3]: severely impaired; production of IL-6, TNF-α and IL-12 [1, 4]: dose-dependent production; phosphorylation/activation of ERK1/2, JNK and p38 (ERK1/2, JNK and p38; TIRAP−/− macrophages): not observed"
CCOCc1nc2c(N)nc3ccccc3c2n1CC(C)(C)O [R-848],autophosphorylation was induced,induced autophosphorylation,phosphorylated and activation was induced,–,–,–
Phytohemagglutinin [PHA],–,–,–,enhanced proliferation,enhanced proliferation,–
"IL-1: Interleukin-1 cytokine, used as IL-1β at 100 U/ml",–,–,–,enhanced proliferation,enhanced proliferation,–
